Assay results published in patent publication US20140199347A1, “ADJUVANT COMPOSITIONS WITH 4-1BBL” (UNIVERSITY OF LOUISVILLE RESEARCH FOUNDATION, INC., priority 2011, published 2014).

Experiments:
[1] = test system: TC-1 target cells; assay: Cytotoxicity assay; type: cell-based, mice; conditions: splenocytes one week post-vaccination, 5 days E749-57 + IL-2, effectors against TC-1 for 4 hrs
Method: Mice with ˜3-4 mm TC-1 tumors in diameter were vaccinated subcutaneously with vaccine formulations containing E7 protein (50 μg) alone or with SA-4-1BBL (25 μg), MPL (25 μg), or the combination of both agents (25 μg/agent). One week post-vaccination, splenocytes were cultured with 10 μg of E749-57 peptide/mL in complete MLR medium supplemented with 50 IU/mL of IL-2. Viable lymphocytes were harvested 5 days later using a Ficoll gradient and used as effectors at various ratios against TC-1 target cells for 4 hrs as described (41).

[2] = test system: 3LL pulmonary metastatic tumors; assay: 3LL pulmonary metastasis model, vaccination with survivin; type: in vivo, mice; conditions: single subcutaneous vaccination day 6 with SVN 50 μg plus adjuvant; lungs day 27
Method: For the pulmonary tumor model, 2×10^5 live 3LL cells were injected intravenously into the tail vein of mice. Mice were vaccinated subcutaneously either once on day 6 or twice on days 6 and 13 post-tumor challenge with various vaccine formulations containing survivin (SVN) protein (50 μg) alone as control or with SA-4-1BBL (25 μg), MPL (25 gig), or the combination of both agents (25 μg/agent). Mice were euthanized 27 days post-tumor challenge for analysis of lung tumor burden as described (12, 18).

[3] = test system: TC-1 tumors; assay: TC-1 tumor model with antibody depletion of CD8+ or CD4+ T cells before vaccination; type: in vivo, mice; conditions: E7 + MPL
Method: (§1) C57BL/6 mice were challenged subcutaneously with 1×10^5 live TC-1 cells into the right flank.
To test if a high CD8^+ Teff/Treg cell ratio can serve as a predictor of vaccine therapeutic efficacy, we used antibodies against CD8 and CD4 molecules to deplete CD8^+ Teff and Treg cells, respectively. Mice with established TC-1 tumors were treated with depleting antibodies one day before vaccination with E7 protein admixed with SA-4-1BBL/MPL or MPL as monotherapy.

[4] = test system: intratumoral CD8^+ T cells and CD4^+Foxp3^+ Treg cells in TC-1 tumor; assay: Intratumoral CD8+ T cells and CD4+Foxp3+ Treg cells by confocal microscopy; type: in vivo, mice; conditions: one week post-vaccination
Method: (§2) Spleens and/or tumor draining lymph nodes (TdLNs) were processed as described previously (7). For memory T cell typing, lymphocytes were stained with anti-CD8-APC-Cy7, anti-CD62L-FITC, and anti-CD44-APC antibodies. For intracellular cytokine staining, lymphocytes (1×10^6 cells/mL) were stimulated either with 10 μg/mL E749-57 peptide for 2 hrs followed by incubation with GolgiPlug (1 μl/mL, BD PharMingen) overnight or with phorbol 12-myristate 13-acetate (PMA) (5 ng/ml, Sigma) and ionomycin (500 ng/ml, Sigma) for 2 hrs followed by incubation with GolgiPlug (1 μl/ml) for an additional 4 hrs. Cells were first stained with anti-CD44-APC and anti-CD8-APC-Cy7, fixed with 4% paraformaldehyde, and then stained with anti-IFN-γ-PE-Cy7, anti-IL-2-Percp-Cy5.5, anti-TNF-PE, or isotype controls followed by acquisition and analysis as previously reported (12). Intratumoral CD8^+ T cells and CD4^+Foxp3^+ Treg cells were analyzed using confocal microscopy as described (12).
Mice bearing ˜3-4 mm TC-1 tumor were vaccinated subcutaneously with various vaccine formulations. One week post-vaccination, tumors were harvested and analyzed for the presence of intratumoral CD8^+ T cells and CD4^+FoxP3^+ Treg cells using confocal microscopy. […] (FIG. 3A, B).

[5] = test system: TC-1 tumors; assay: Therapeutic vaccination in the established TC-1 tumor model; type: in vivo, C57BL/6 mice; conditions: single subcutaneous vaccination day 6 post-tumor challenge, E7 protein 50 μg plus adjuvant 25 μg/agent; 90 days observation
Description: as §1

[6] = test system: E749-57 peptide-specific CD8^+ T cells; assay: Primary CD8+ T cell intracellular IFN-γ response of tumor draining lymphocytes; type: in vivo, mice; conditions: one week post-vaccination
Method: as §2

## 3-O-desacyl-4′-monophosphoryl lipid A [MPL]
[1]
  TC-1 killing response: failed to do so
[2]
  control of tumor growth (lung weight and presence of tumor nodules): statistically significant (P<0.05) effect in controlling tumor growth
[3]; depletion of CD4+ T cells including Treg cells one day before vaccination
  therapeutic efficacy: 100%
[3]; without depletion
  therapeutic efficacy: 50%
[4]; TC-1 tumor
  intratumoral Teff/Treg cell ratio: no effect
  number of intratumoral CD8+ T cells infiltration: moderate effect
[4]; ~3-4 mm TC-1 tumor, versus PBS controls or E7 protein alone
  number of intratumoral Treg cells: did not have detectable effect
[5]
  eradication of established TC-1 tumors, mice tumor-free: 50%
[6]
  E7 TAA-specific CD8+ T cell IFN-γ response (primary): failed to do so
